The values that follow come from patent US9862762B2, “Monoclonal antibodies which bind human periostin” (MEDIMMUNE, LLC, priority 2014, dated 2018).

Several values for one entry are separate records, joined by “and”; a condition that tells them apart may be missing. Identical values can stand only once.

Test [1] deals with EPIAIRWAY tissue (normal and asthmatic lung epithelium). In words: Periostin levels in IL-13 stimulated […] tissue models. The test is classed as cell-based, human. The conditions noted are these: stimulation with 50 ng/mL IL-13 for 48 hours (FIG. 6). On the procedure:
FIG. 6: Periostin levels in IL-13 Stimulated […]™ Models (Normal and Asthmatic Lung Epithelium). Detection of periostin levels in […]™ tissue obtained from either normal healthy individuals or from asthma patients each receiving different treatments: Advair only; oral and inhaled steroids; no medication; or albuterol only. Periostin levels were determined using the biotin/streptavidin-HRP sandwich ELISA assay using 4B4.B11 as the capture antibody and biotinylated 7B5.C4 as the detection antibody. Samples receiving steroid were pre-treated for 6 hrs with 100 nM budesonide. Samples were either unstimulated or stimulated with 50 ng/mL IL-13±budesonide for 48 hours. Periostin levels increase following stimulation with IL-13. This increase is reduced with steroid treatment.
The assay provided in this disclosure was further used to measure periostin levels in the […]™ tissue model. EpiAirway tissue models were obtained from MatTek corporation. These tissues are a 3-D model of respiratory tract tissue obtained from either normal healthy individuals or from asthma patients. The model was used to evaluate 1 normal donor and 4 asthma donors. The 4 asthma donors each had received different treatments: Advair only; oral and inhaled steroids; no medication; or albuterol only. All tissue samples were cultured in appropriate cell culture media (provided from MatTek) for 24 hrs prior to stimulation. […]

Test [2] concerns patients with uncontrolled asthma. The note with it: above-median vs below-median baseline serum periostin; cited from earlier work.
Test [3] has as its system adults with uncontrolled, severe asthma. Nature of the test: Phase 2b study CD-RI-CAT-354-1049 of SC tralokinumab, subgroup analysis by baseline serum periostin. Format: in vivo, human. The note with it: for Asthma exacerbation rate reduction: tralokinumab 300 mg Q2W vs placebo; for Change from baseline in ACQ-6 / Change from baseline in AQLQ / Percent change from baseline in FEV1: tralokinumab 300 mg Q2W. How it is done: A 5-week screening/run-in period (Week-5 to -1 [Day-1]) preceded randomisation. Starting at Week-4 (Day-28), patients received a fixed-dose combination product of fluticasone/salmeterol, either as an MDI (230 μg/21 μg) at a dose of 2 inhalations twice per day or as a DPI (500 μg/50 μg) at a dose of one inhalation twice per day. If the patient was also taking additional asthma controller medications (including leukotriene modifiers, theophylline, cromones, a secondary ICS, or oral prednisolone ≦20 mg/day or equivalent OCS), then these medications were to be continued at a stable dose during the screening/run-in and treatment period.
Patients were randomised in a 1:1 ratio to one of 2 cohorts (Cohort 1 or Cohort 2).
The median periostin level used in the study to define high periostin was a baseline serum periostin of ≧23 ng/mL (i.e., high periostin) as measured using an immunoassay.
FIGS. 11A-B; TABLE 4. The median periostin level used in the study to define high periostin was a baseline serum periostin of about ≧23 ng/mL (i.e., high periostin) as measured using an immunoassay. For a continuous representation of AER reduction by periostin level and percent change from baseline in pre-bronchodilator FEV, by serum periostin level, see FIG. 10.

Where [4] appears, read: post hoc, 300 mg Q2W, FEV1 reversibility≧12% and serum periostin≧median at baseline.

“IL-13: 114 amino acid cytokine used to stimulate periostin expression”: in test [1], the Periostin levels result is “increase”.
In the case of lebrikizumab, the “increases in FEV1” value in test [2] was “larger increases in FEV1”.
tralokinumab: the “percent change from baseline in pre-bronchodilator FEV1 over time” value in test [3] (300 mg Q2W group, through to Week 53, (FIG. 11B)) is “No significant increases in FEV1”; in test [3] (300 mg Q2W group, through to Week 53, periostin >=median (FIG. 11A)) it was “Relative increases in FEV1 were observed”; in test [3] (Q2/4W group, through to Week 53, (FIG. 11B)) it was “No significant increases in FEV1”. The “reduction in serum periostin levels” value in test [3] (patients with baseline serum periostin above the median compared to those below the median) is given as “Greater reduction”. Also, the “percentage increase from baseline in pre-bronchodilator FEV1 compared to placebo” value in test [3] (setting [4]) is listed as 13.85%. For the same substance, in test [3] (setting [4]), the “reduction in AER” value was 54%. Besides, the “Asthma exacerbation rate reduction” value in test [3] (Week 53, ITT (N = 150)) stood at 7%; in test [3] (Week 53, baseline serum Periostin ≧ Median), 25%. For the same substance, the “Change from baseline in ACQ-6” value is −0.18 in test [3] (ITT), −0.02 in test [3] (Periostin < Median) and −0.23 in test [3] (Periostin ≧ Median). For the same substance, the “Change from baseline in AQLQ” value in test [3] (ITT) is reported as 0.21; in test [3] (Periostin < Median) it was 0.21; in test [3] (Periostin ≧ Median) it was 0.22. In addition, the “Percent change from baseline in FEV1” value in test [3] (Week 53, ITT / regardless of serum periostin level) is 7.1%; in test [3] (Week 53, Periostin < Median), 7.06%; in test [3] (Week 53, Periostin ≧ Median), 6.75% and 6.8%.
